We go through 19 compounds from patent US5736539A, “Inhibitors of farnesyl-protein transferase” (Merck & Co., Inc., priority 1995, dated 1998).

Experiment [1] relates to Ras farnesylation in the v-ras cell line (viral Ha-ras p21). Kind of experiment: In vivo ras farnesylation assay (v-ras cell line, immunoprecipitation, percent inhibition of farnesyl transfer to protein). The class given is cell-based. Particulars: 4 h at 37° C. then additional 20 h labelling with [35S]methionine. The method, then:
In vivo ras farnesylation assay
The cell line used in this assay was the v-ras line, which expressed viral Ha-ras p21. The assay was performed essentially as described in DeClue, J. E. et. al., Cancer Research 51,712-717, (1991). Cells in 10 cm dishes at 50-75% confluency were treated with the test compound (final concentration of solvent, methanol or dimethyl sulfoxide, was 0.1%). After 4 hours at 37° C., the cells were labelled in 3 ml methionine-free DMEM supplemeted with 10% regular DMEM, 2% fetal bovine serum and 400 μCi[^35 S]methionine (1000 Ci/mmol). After an additional 20 hours, the cells were lysed in 1 ml lysis buffer (1% NP40/20 mM HEPES, pH 7.5/5 mM MgCl2 /1 mM DTT/10 μg/ml aprotinen/2 μg/ml leupeptin/2 μg/ml antipain/0.5 mM PMSF) and the lysates cleared by centrifugation at 100,000×g for 45 min. Aliquots of lysates containing equal numbers of acid-precipitable counts were bought to 1 ml with IP buffer (lysis buffer lacking DTT) and immunoprecipitated with the ras-specific monoclonal antibody Y13-259 (Furth, M. E. et. al., J. Virol. 43, 294-304, (1982)). Following a 2 hour antibody incubation at 4° C., 200 μl of a 25% suspension of protein A-Sepharose coated with rabbit anti rat IgG was added for 45 min. The immunoprecipitates were washed four times with IP buffer ([…] HEPES, pH 7.5/1 mM EDTA/1% Triton X-100.0.5% deoxycholate/0.1%/SDS/0.1M NaCl) boiled in SDS-PAGE sample buffer and loaded on 13% acrylamide gels. When the dye front reached the bottom, the gel was fixed, soaked in Enlightening, dried and autoradiographed. The intensities of the bands corresponding to farnesylated and nonfarnesylated ras proteins were compared to determine the percent inhibition of farnesyl transfer to protein.

Experiment [2] deals with Farnesyl-protein transferase (FPTase). Kind of experiment: In vitro inhibition of ras farnesyl transferase (Ras-CVLS, [3H]FPP). The experiment is classed as biochemical, bovine brain or recombinant human. Particulars: Ras-CVLS 3.5 μM, 0.25 μM [3H]FPP; partially purified bovine or recombinant human enzyme; read-out: IC50 (concentration of the test compound which gives 50% inhibition of FPTase).
Experimental: Ras-CVLS at 3.5 μM, 0.25 μM [^3 H]FPP, and the indicated compounds were incubated with either a partially purified bovine enzyme preparation or a recombinant human enzyme preparation.

The next experiment concerns Ras farnesylation. As to conditions: Hancock et al.; Casey et al.; Schafer et al., Science 245:379 (1989); cited from earlier work.

Structures can show the parent of a compound that is named as a salt.

Regarding `CSCC[C@H]1CN(C(=O)c2cccc(C)c2C)CCN1C[C@@H](N)CS` [Example 8, 1-[2(R)-Amino-3-mercaptopropyl]-4-(2,3-dimethylbenzoyl)-2(S)-(2-methylthioethyl)piperazine dihydrochloride], the IC50 is 500 to 1000 nM in experiment [1] and 11 nM in experiment [2].
On the same counts, the results for `CCCC[C@H]1CN(C(=O)c2cccc(C)c2C)CCN1C[C@@H](N)CS` [Example 3, 1-[2(R)-Amino-3-mercaptopropyl]-2(S)-n-butyl-4-(2,3-dimethylbenzoyl)piperazine dihydrochloride] are 5000 nM and 6 nM.
For the compound `COCC[C@H]1CN(C(=O)c2cccc3ccccc23)CCN1C[C@@H](N)CSSC[C@H](N)CN1CCN(C(=O)c2cccc3ccccc23)C[C@@H]1CCOC` [Example 21, bis-1, 1'-[2(R)-Amino-3-(2(S)-(2-methoxyethyl)-4-naphthoyl-1-piperazinyl)]propyl disulfide tetrahydrochloride], the IC50 in experiment [2] is 1 nM.
As for `NC(CS)CN1CCN(C(=O)c2cccc3ccccc23)CC1C(=O)N1CCCCC1` [Example 30, 1-(2(R)-Amino-3-mercaptopropyl)-4-(1-naphthoyl)-2(S)-piperidylcarboxyl-4-piperazine dihydrochloride], the figures for the IC50 in experiment [1] and in experiment [2] were 500 nM and 3 nM, respectively.
On the same counts, the results for `CCCC[C@H]1CN(C(=O)c2cccc3c2OCC3)CCN1C[C@@H](N)CS` [Example 17, 1-[2(R)-Amino-3-mercaptopropyl]-2(S)-n-butyl-4-[7-(2,3-dihydrobenzofuranoyl)]piperazine dihydrochloride] are 500 nM and 6 nM.
On the same counts, the results for `Cc1cccc(C(=O)N2CCN(C[C@@H](N)CS)[C@@H](Cc3ccccc3)C2)c1C` [Example 6, 1-[2(R)-Amino-3-mercaptopropyl]-2(S)-benzyl-4-(2,3-dimethylbenzoyl)piperazine dihydrochloride] are 500 to 1000 nM and 4 nM.
Consider `CC(=O)NCCCC[C@H]1CN(C(=O)c2cccc3ccccc23)CCN1C[C@@H](N)CS` [Example 27, 1-[2(R)-Amino-3-mercaptopropyl]-4-(1-naphthoyl)-2(S)-(4-acetamidobutyl)piperazine dihydrochloride], for which the IC50 in experiment [1] worked out at 500 nM; in experiment [2], 3.5 nM.
On the same counts, the results for `CCCC[C@H]1CN(C(=O)c2cccc3ccccc23)CCN1C[C@@H](N)CS` [Example 16, 1-[2(R)-Amino-3-mercaptopropyl]-2(S)-n-butyl-4-(1-naphthoyl)piperazine dihydrochloride] are 500 nM and 2 nM.
Turning to `CCCOCC[C@H]1CN(C(=O)c2cccc3cccnc23)CCN1C[C@@H](N)CS` [Example 15, 1-[2(R)-Amino-3-mercaptopropyl]-2(S)-(2-(1-propoxy)ethyl)-4-(8-quinolinylcarbonyl)piperazine trihydrochloride], in experiment [2], the IC50 was 6 nM.
Consider `CCCOCC[C@H]1CN(C(=O)c2cccc3ccccc23)CCN1C[C@@H](N)CS` [Example 13, 1-[2(R)-Amino-3-mercaptopropyl]-2(S)-(2-(1-propoxy)ethyl)-4-(1-naphthoyl)piperazine dihydrochloride], for which the IC50 in experiment [1] worked out at 500 nM; in experiment [2], 3 nM.
Turning to `COCC[C@H]1CN(C(=O)c2cccc(C)c2C)CCN1C[C@@H](N)CS` [Example 7, 1-[2(R)-Amino-3-mercaptopropyl]-4-(2,3-dimethylbenzoyl)-2(S)-(2-methoxyethyl)piperazine dihydrochloride], the IC50 in experiment [1] was 500 to 1000 nM.
Regarding `CCCC[C@H]1CN(C(=O)c2cccc3cccnc23)CCN1C[C@@H](N)CS` [Example 19, 1-(2(R)-Amino-3-mercaptopropyl)-2(S)-n-butyl-4-(8-quinolinylcarbonyl)piperazine trihydrochloride], the IC50 in experiment [1] came out at 1000 nM; in experiment [2], 5 nM.
On to “1-[2(R)-Amino-3-mercaptopropyl]-4-(1-naphthoyl)-2(S)-(3-methoxy-1-propyl)piperazine dihydrochloride [Example 18]”, for which, in experiment [2], the IC50 was found to be 1 nM.
With `CC[C@H](C)C(=O)O[C@H]1C[C@@H](C)C=C2C=C[C@H](C)[C@H](CC[C@@H]3C[C@@H](O)CC(=O)O3)[C@H]21` [lovastatin], the “Inhibition of Ras farnesylation in vivo” value in the experiment on Ras farnesylation is “Inhibition of Ras farnesylation in vivo has been demonstrated”.
With `COC(=O)C1CN(C[C@@H](N)CS)CCN1Cc1cccc2ccccc12` (stereo partly drawn) [Example 31, Methyl 4-(2(R)-amino-3-mercaptopropyl)-l-(1-naphthylmethyl)piperazine-2-carboxylate hydrochloride], the IC50 in experiment [1] was 10000 nM; in experiment [2] it was 2.9 nM.
With `N[C@@H](CS)CN1CCN(C(=O)c2cccc3ccccc23)C[C@@H]1CCOCc1cccnc1` [Example 14, 1-[2(R)-Amino-3-mercaptopropyl]-2(S)-(2-(3-pyridylmethoxy)ethyl)-4-(1-naphthoyl)piperazine trihydrochloride], the IC50 in experiment [2] was 1 nM.
On to `COCC[C@H]1CN(C(=O)c2cccc3ccccc23)CCN1C[C@@H](N)CS` [Example 12, 1-[2(R)-Amino-3-mercaptopropyl]-4-(1-naphthoyl)-2(S)-(2-methoxyethyl)piperazine dihydrochloride], for which the IC50 in experiment [1] was determined as 500 nM; in experiment [2], 5 nM.
In the same order, the values of `N[C@@H](CS)CN1CCCN(C(=O)c2cccc3ccccc23)CC1` [Example 28, 1-(2(R)-Amino-3-mercaptopropyl)-4-(1-naphthoyl)homopiperazine dihydrochloride] are 10000 nM and 21 nM.
Take `CC[C@H](C)C(=O)O[C@H]1CCC=C2C=C[C@H](C)[C@H](CC[C@@H]3C[C@@H](O)CC(=O)O3)[C@H]21` [compactin]: the “Inhibition of Ras farnesylation in vivo” value in the experiment with Ras farnesylation is listed as “Inhibition of Ras farnesylation in vivo has been demonstrated”.
